Test system: Male C57BL/12 mice
Assay: Bleomycin (BLM)-induced pulmonary fibrosis model
Format: in vivo
Conditions: bleomycin 1.5 U/kg intratracheal, prophylactic, day 0→21
Experimental: The following model was employed: • Male C57BL/12 mice,22-26 g • Induction by administration of Bleomycin (1.5 U/kg), intratracheal • Ref. Comp.: Pirfenidone, 100 mg/kg, p.o., BID • Treatment Mode: Prophylactic (from day 0→21)
Pulmonary fibrosis was induced by bleomycin (BLM) and treated with aramchol (meglumine salt). As a reference, results for the known anti-idiophatic pulmonary fibrosis agent pirfenidone are also presented, in FIGS. 26A-26B, where hydroxyproline was used as biomarker for fibrosis (hydroxyproline use as idiophatic pulmonary fibrosis biomarker is disclosed in “Lung fibrosis is ameliorated by pirfenidone fed in diet after the second dose in a three-dose bleomycin-hamster model”, Iyer, Swarnalatha N.; Margolin, S. B.; Hyde, D. M.; Giri, S. N.; Experimental Lung Research (1998), 24(1), 119-132; and “Simple determination of L-hydroxyproline in idiopathic pulmonary fibrosis lung tissues of rats using non-extractive high-performance liquid chromatography coupled with fluorescence detection after pre-column derivatization with novel synthetic 9-acetylimidazol-carbazole”, Ren, Y.; Zhao, J.; Shi, Y.; Chen, C.; Chen, X.; Lv, C.; Journal of Pharmaceutical and Biomedical Analysis 2017, 142, 1-6).

Row | Compound | histopathology of the lungs (H&E, COL1A1, aSMA; FIG. 27) | Ashcroft score, COL1A1 and aSMA quantification (FIGS. 28A-28E) (compared to pirfenidone)
1 | CCCCCCCCCCCCCCCCCCCC(=O)N[C@H]1CC[C@@]2(C)[C@@H](C1)C[C@@H](O)[C@@H]1[C@@H]2C[C@H](O)[C@]2(C)[C@@H]([C@H](C)CCC(=O)O)CC[C@@H]12 [aramchol] | very similar to the one of pirfenidone | treats the fibrosis in better (higher) extent and has more significant effect
2 | Cc1ccc(=O)n(-c2ccccc2)c1 [pirfenidone, reference compound] | much more similar to the one without the fibrosis | –

Reference: patent US20250332176A1, “TREATMENT FOR FIBROSIS AND INHIBITION OF FIBROSIS” (GALMED RESEARCH AND DEVELOPMENT LTD, priority 2022, published 2025)
